Source: patent US5792742A, “Fibrin-binding peptide fragments of fibronectin” (New York University, priority 1994, dated 1998)

Columns and labels:
fibrin [1] = assay: Rebinding of eluted 11 kDa fragment to fibrin column; assay type: binding, bovine
Procedure: Thus, although 100% of the 11 kDa peptide that was applied to the column could be eluted, only 40-50% of the protein rebound to a second fibrin column at 4° C., and only 20% bound at 37° C.
The 11 kDa peptide of fibronectin (or 25.9 kDa peptide) and genetically engineered and expressed proteins of fibronectin type I repeat modules are subjected to fibrin-SEPHAROSE™ chromatography as described above.

fibrin [2] = assay: Reversibility (displacement) of 125I-11 kDa FBP binding to fibrin; details: 2,000 nM unlabeled peptide (22.2 molar excess)
Procedure: Detachable microtiter wells previously coated with 15 ng of fibrin were incubated with 100 ng/0.1 ml FBB (90 nM) of ^125 I-11 kDa for 1 hour at 22° C. The unbound radiolabeled protein was removed by extensive washing with FBB containing 0.1% Tween 20. […] The iodinated 11 kDa that remained bound to the removable wells was determined by quantitating the radioactivity attached to the individual wells in a gamma counter. Results were expressed as percentage of control wells incubated with buffer alone.

Question: Which results are given for “11 kDa FBP: 11 kDa C-terminal proteolytic (subtilisin) fibrin-binding fragment of human plasma fibronectin, residues 2123-2232 of SEQ ID NO:1”?
Answer: % Rebound to fibrin (fibrin [1]; 4° C., eluted with 1.0M KBr): 7-10%; % Rebound to fibrin (fibrin [1]; 4° C., eluted with 2.0M Urea): 60%; % Rebound to fibrin (fibrin [1]; 4° C., eluted with 4.0M Urea): 45-52%; % Rebound to fibrin (fibrin [1]; 4° C., eluted with 6.0M Urea): 40-50%; % Rebound to fibrin (fibrin [1]; 4° C., eluted with 6.0M Urea (step dialysis)): 40-50%; % Rebound to fibrin (fibrin [1]; 4° C., eluted with ethylene glycol, listed as 11 kDa FRAGMENT): 80%; % Rebound to fibrin (fibrin [1]; 4° C., eluted with ethylene glycol, listed as 11 kDa peptide): 60%; % Rebound to fibrin (fibrin [1]; 37° C., eluted with 6.0M urea): 20%; % Rebound to fibrin (fibrin [1]; 37° C., eluted with ethylene glycol): 49.5%; % of bound iodinated 11 kDa reversibly displaced (fibrin [2]): 42%
